In ChEMBL document CHEMBL1909046, “DrugMatrix in vitro pharmacology data” one finds IC50 and Ki data, which are given here for 18 molecules.

The target of experiment [1] is T1, Alpha-1A adrenergic receptor (Rattus norvegicus, UniProt P43140).
T1 sequence (P43140 whole entry): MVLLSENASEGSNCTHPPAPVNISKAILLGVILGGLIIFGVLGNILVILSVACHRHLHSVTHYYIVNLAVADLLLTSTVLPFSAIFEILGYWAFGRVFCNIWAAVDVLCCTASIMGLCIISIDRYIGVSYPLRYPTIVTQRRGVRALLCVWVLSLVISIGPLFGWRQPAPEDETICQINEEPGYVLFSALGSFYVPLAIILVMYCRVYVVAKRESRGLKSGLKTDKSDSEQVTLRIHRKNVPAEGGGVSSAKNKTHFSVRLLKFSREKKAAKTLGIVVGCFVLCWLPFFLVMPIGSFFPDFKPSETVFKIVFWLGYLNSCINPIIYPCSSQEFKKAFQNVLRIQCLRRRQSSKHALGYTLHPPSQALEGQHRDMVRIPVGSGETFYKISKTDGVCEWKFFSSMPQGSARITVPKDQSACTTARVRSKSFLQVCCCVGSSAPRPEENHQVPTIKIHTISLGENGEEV
As to the kind of experiment: DRUGMATRIX: Alpha-1A adrenergic receptor radioligand binding (ligand: prazosin). To be noted: Not Active = under 50% inhibition at 10 µM. Type of experiment: cell membranes, Wistar, Submaxillary gland, Membrane.

Experiment [2] concerns the target 5-hydroxytryptamine receptor 6 (Homo sapiens, UniProt P50406). Type of experiment: cell membranes, HeLa, Membrane. As to conditions: hela. Note: in other assays of this panel Not Active means under 50% inhibition at 10 µM.
Experiment [3] can be described thus: DRUGMATRIX: Nicotinic Acetylcholine radioligand binding (ligand: [125I] Epibatidine). Type of experiment: cell membranes, Membrane. To be noted: imr-32; Not Active = under 50% inhibition at 10 µM.
The target in experiment [4] is Mitogen-activated protein kinase 14 (Homo sapiens, UniProt Q16539). Further details: species or system Escherichia coli.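 Note: inhibition of p38alpha enzyme activity in a biochemical kinase assay, with myelin basic protein serving as substrate; in other assays of this panel Not Active means under 50% inhibition at 10 µM.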
Mitogen-activated protein kinase 14, sequence (Q16539 whole entry): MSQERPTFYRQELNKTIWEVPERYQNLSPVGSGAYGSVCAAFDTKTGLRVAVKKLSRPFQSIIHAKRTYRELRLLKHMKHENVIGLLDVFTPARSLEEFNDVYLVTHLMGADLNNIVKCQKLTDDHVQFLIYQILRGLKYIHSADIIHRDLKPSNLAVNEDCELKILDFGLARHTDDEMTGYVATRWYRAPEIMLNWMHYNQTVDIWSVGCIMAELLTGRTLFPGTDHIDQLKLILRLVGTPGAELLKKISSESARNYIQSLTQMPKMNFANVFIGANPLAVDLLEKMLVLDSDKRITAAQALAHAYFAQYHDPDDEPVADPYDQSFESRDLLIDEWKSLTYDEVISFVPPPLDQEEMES
Experiment [5] addresses Tyrosine-protein kinase Lck (Homo sapiens, UniProt P06239). Nature of the experiment: DRUGMATRIX: Protein Tyrosine Kinase, LCK enzyme inhibition (substrate: Poly(Glu:Tyr)). To be noted: insect cells; Not Active = under 50% inhibition at 10 µM. Type of experiment: cell-based, Insect cells.
The target of another experiment is T2, Glucocorticoid receptor (Homo sapiens, UniProt P04150). Note: in other assays of this panel Not Active means under 50% inhibition at 10 µM.
T2 sequence (P04150 whole entry): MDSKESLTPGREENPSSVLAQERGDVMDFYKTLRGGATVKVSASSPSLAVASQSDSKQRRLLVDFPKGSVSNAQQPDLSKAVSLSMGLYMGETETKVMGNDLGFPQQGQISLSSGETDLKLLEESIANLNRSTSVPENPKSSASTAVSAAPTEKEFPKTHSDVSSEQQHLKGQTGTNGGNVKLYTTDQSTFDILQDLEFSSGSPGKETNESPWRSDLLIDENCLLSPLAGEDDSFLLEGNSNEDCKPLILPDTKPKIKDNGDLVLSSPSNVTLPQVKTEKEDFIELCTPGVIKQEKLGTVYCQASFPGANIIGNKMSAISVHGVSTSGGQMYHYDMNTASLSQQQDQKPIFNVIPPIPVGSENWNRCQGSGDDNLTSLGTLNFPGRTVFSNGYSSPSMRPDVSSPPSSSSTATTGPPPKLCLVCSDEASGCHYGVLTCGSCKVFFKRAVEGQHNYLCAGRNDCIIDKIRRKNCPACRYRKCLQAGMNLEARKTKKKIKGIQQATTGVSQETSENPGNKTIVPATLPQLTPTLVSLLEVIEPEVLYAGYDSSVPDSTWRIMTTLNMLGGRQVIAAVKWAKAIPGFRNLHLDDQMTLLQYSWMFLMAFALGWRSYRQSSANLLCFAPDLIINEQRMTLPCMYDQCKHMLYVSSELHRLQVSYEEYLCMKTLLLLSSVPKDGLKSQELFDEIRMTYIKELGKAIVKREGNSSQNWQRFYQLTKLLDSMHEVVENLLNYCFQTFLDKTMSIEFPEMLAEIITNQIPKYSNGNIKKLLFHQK
To be noted: hela s3.

5-hydroxytryptamine receptor 6, sequence (P50406 whole entry): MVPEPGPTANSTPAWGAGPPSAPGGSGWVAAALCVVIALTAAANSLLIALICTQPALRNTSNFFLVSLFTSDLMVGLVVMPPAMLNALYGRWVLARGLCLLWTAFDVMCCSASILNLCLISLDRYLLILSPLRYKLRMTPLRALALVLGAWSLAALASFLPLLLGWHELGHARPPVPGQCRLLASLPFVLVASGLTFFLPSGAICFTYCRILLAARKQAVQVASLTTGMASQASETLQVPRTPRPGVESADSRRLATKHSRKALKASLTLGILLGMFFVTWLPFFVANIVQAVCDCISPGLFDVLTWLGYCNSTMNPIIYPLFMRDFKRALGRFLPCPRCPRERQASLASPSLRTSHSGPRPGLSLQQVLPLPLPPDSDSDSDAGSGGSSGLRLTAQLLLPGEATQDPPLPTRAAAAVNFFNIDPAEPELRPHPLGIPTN
Tyrosine-protein kinase Lck, sequence (P06239 whole entry): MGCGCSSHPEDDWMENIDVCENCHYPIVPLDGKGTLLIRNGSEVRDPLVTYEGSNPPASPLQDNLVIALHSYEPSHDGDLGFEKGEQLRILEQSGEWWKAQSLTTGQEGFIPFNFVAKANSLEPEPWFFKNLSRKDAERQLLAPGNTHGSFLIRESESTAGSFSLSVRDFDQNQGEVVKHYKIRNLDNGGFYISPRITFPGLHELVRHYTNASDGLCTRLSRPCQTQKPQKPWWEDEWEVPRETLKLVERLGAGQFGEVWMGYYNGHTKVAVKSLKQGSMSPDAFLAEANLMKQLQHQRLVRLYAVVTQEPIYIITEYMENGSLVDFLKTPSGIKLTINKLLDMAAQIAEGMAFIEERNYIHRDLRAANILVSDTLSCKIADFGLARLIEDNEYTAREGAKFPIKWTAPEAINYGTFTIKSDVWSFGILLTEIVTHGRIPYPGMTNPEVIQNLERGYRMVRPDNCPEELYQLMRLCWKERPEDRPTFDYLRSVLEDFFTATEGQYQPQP

Regarding `Oc1ncnc2[nH]ncc12` [ALLOPURINOL], the IC50 entry (in experiment [1]; in experiment [2]; in experiment [3]; in experiment [4]; in experiment [5]; on Glucocorticoid receptor) was “Not Active” in each case. Also, in experiment [3], the Ki entry is reported as “Not Active”.

On to CHROMIC CHLORIDE, for which the IC50 entry (in experiment [1]; in experiment [2]; in experiment [3]; in experiment [4]; in experiment [5]; against Glucocorticoid receptor) was “Not Active” each time. The Ki entry (in experiment [1]; in experiment [2]; in experiment [3]; in experiment [4]; in experiment [5]; on Glucocorticoid receptor) was “Not Active” each time.

Take `CCCCCCNC(=O)n1cc(F)c(=O)[nH]c1=O` [CARMOFUR]: the IC50 result (in experiment [1]; in experiment [2]; in experiment [3]; in experiment [4]; in experiment [5]; on Glucocorticoid receptor) was “Not Active” in each case. For the same molecule, in experiment [3], the Ki entry is recorded as “Not Active”.

With `O=C(O)CCc1nc(-c2ccccc2)c(-c2ccccc2)o1` [OXAPROZIN], the IC50 entry (in experiment [1]; in experiment [2]; in experiment [3]; in experiment [4]; in experiment [5]; on Glucocorticoid receptor) was “Not Active” in each case. In addition, the Ki result in experiment [3] is recorded as “Not Active”.

As for `Nc1nc(F)nc2c1ncn2[C@@H]1O[C@H](CO)[C@@H](O)[C@@H]1O` [FLUDARABINE], the IC50 entry (in experiment [1]; in experiment [2]; in experiment [3]; in experiment [4]; in experiment [5]; at Glucocorticoid receptor) was “Not Active” each time. The Ki result in experiment [3] is on record as “Not Active”.

Consider `O=C1CN(/N=C/c2ccc([N+](=O)[O-])o2)C(=O)N1` [NITROFURANTOIN], for which the IC50 entry (in experiment [1]; in experiment [2]; in experiment [3]; in experiment [4]; in experiment [5]; on Glucocorticoid receptor) was “Not Active” throughout. In addition, the Ki entry in experiment [3] was “Not Active”.

On to `CC12CCC(CC1=O)C2(C)C` (stereo unspecified) [CAMPHOR], for which the IC50 entry (in experiment [1]; in experiment [2]; in experiment [3]; in experiment [4]; in experiment [5]; at Glucocorticoid receptor) was “Not Active” in each case. Moreover, the Ki result in experiment [3] is “Not Active”.

As to `Nc1nc(N)c2nc(CNc3ccc(C(=O)N[C@@H](CCC(=O)O)C(=O)O)cc3)cnc2n1` [AMINOPTERIN], the half-inhibitory concentration (IC50) result (in experiment [1]; in experiment [2]; in experiment [3]; in experiment [4]; in experiment [5]; against Glucocorticoid receptor) was “Not Active” each time. In addition, in experiment [3], the Ki result is “Not Active”.

As to `Cc1c(N)nc([C@H](CC(N)=O)NC[C@H](N)C(N)=O)nc1C(=O)N[C@H](C(=O)N[C@H](C)[C@@H](O)[C@H](C)C(=O)N[C@H](C(=O)NCCc1nc(-c2nc(C(=O)NCCC[S+](C)C)cs2)cs1)[C@@H](C)O)[C@@H](O[C@@H]1O[C@@H](CO)[C@@H](O)[C@H](O)[C@@H]1O[C@H]1O[C@H](CO)[C@@H](O)[C@H](OC(N)=O)[C@@H]1O)c1c[nH]cn1.[Br-]` [BLEOMYCIN A2], the IC50 result (in experiment [1]; in experiment [2]; in experiment [3]; in experiment [4]; in experiment [5]; at Glucocorticoid receptor) was “Not Active” each time. Besides, the Ki entry in experiment [3] is “Not Active”.

Turning to `OC[C@H]1O[C@@H]2O[C@H]3[C@H](O)[C@@H](O)[C@@H](O[C@H]4[C@H](O)[C@@H](O)[C@@H](O[C@H]5[C@H](O)[C@@H](O)[C@@H](O[C@H]6[C@H](O)[C@@H](O)[C@@H](O[C@H]7[C@H](O)[C@@H](O)[C@@H](O[C@H]1[C@H](O)[C@H]2O)O[C@@H]7CO)O[C@@H]6CO)O[C@@H]5CO)O[C@@H]4CO)O[C@@H]3CO` [ALFADEX], the IC50 entry (in experiment [1]; in experiment [2]; in experiment [3]; in experiment [4]; in experiment [5]; on Glucocorticoid receptor) was “Not Active” throughout. In addition, the Ki entry in experiment [3] is “Not Active”.

As to `O=C(O)CNCP(=O)(O)O` [GLYPHOSATE], the IC50 entry (in experiment [1]; in experiment [2]; in experiment [3]; in experiment [4]; in experiment [5]; at Glucocorticoid receptor) was “Not Active” in each case. In experiment [3], the Ki result is “Not Active”.

With `O=C(Nc1ccc(Cl)c(Cl)c1)c1cc(Cl)cc(Cl)c1O` [3,3',4',5-TETRACHLOROSALICYLANILIDE], the IC50 (as a rule, the point on the concentration scale where inhibition reaches its midpoint) in experiment [1] is “Not Active”; in experiment [2], “Not Active”; in experiment [3], “Not Active”; in experiment [4] (read-out: IC50), 2.18 µM; in experiment [5], “Not Active”; against Glucocorticoid receptor it was “Not Active”. Also, the Ki entry in experiment [3] is recorded as “Not Active”.

On to `COC(=O)Nc1nc2ccc(Sc3ccccc3)cc2[nH]1` [FENBENDAZOLE], for which the IC50 entry in experiment [1] was “Not Active”; in experiment [2], “Not Active”; in experiment [3], “Not Active”; in experiment [4] (read-out: IC50), 3.19 µM; in experiment [5], “Not Active”; against Glucocorticoid receptor it was “Not Active”. For the same molecule, the Ki result in experiment [3] is given as “Not Active”.

`Nc1ccc(C(=O)O)c(O)c1` [AMINOSALICYLIC ACID]: the IC50 entry (in experiment [1]; in experiment [2]; in experiment [3]; in experiment [4]; in experiment [5]; at Glucocorticoid receptor) was “Not Active” each time. Moreover, the Ki entry in experiment [3] is recorded as “Not Active”.

Consider `COC(=O)C[C@](O)(CCC(C)(C)O)C(=O)O[C@@H]1C(OC)=C[C@]23CCCN2CCc2cc4c(cc2[C@H]13)OCO4` [HARRINGTONINE], for which the IC50 result (in experiment [1]; in experiment [2]; in experiment [3]; in experiment [4]; in experiment [5]; against Glucocorticoid receptor) was “Not Active” in each case. In addition, in experiment [3], the Ki entry was “Not Active”.

Consider `OC[C@H]1O[C@@H]2O[C@H]3[C@H](O)[C@@H](O)[C@@H](O[C@H]4[C@H](O)[C@@H](O)[C@@H](O[C@H]5[C@H](O)[C@@H](O)[C@@H](O[C@H]6[C@H](O)[C@@H](O)[C@@H](O[C@H]7[C@H](O)[C@@H](O)[C@@H](O[C@H]8[C@H](O)[C@@H](O)[C@@H](O[C@H]1[C@H](O)[C@H]2O)O[C@@H]8CO)O[C@@H]7CO)O[C@@H]6CO)O[C@@H]5CO)O[C@@H]4CO)O[C@@H]3CO` [BETADEX], for which the IC50 result (in experiment [1]; in experiment [2]; in experiment [3]; in experiment [4]; in experiment [5]; against Glucocorticoid receptor) was “Not Active” each time. The Ki entry in experiment [3] is on record as “Not Active”.

In the case of `COc1cc([C@@H]2c3cc4c(cc3[C@H](O)[C@H]3COC(=O)[C@H]23)OCO4)cc(OC)c1OC` [PODOFILOX], the IC50 result (in experiment [1]; in experiment [2]; in experiment [3]; in experiment [4]; in experiment [5]; against Glucocorticoid receptor) was “Not Active” throughout. Also, the Ki entry in experiment [3] is listed as “Not Active”.

Turning to CARBOXYMETHYLCELLULOSE, the IC50 entry (in experiment [1]; in experiment [2]; in experiment [3]; in experiment [4]; in experiment [5]; against Glucocorticoid receptor) was “Not Active” in each case. For the same molecule, the Ki result (in experiment [1]; in experiment [2]; in experiment [3]; in experiment [4]; in experiment [5]; at Glucocorticoid receptor) was “Not Active” each time.
